Laboratory results reported in patent US11332443B2, “Derivatives of halo quinabactin” (THE REGENTS OF THE UNIVERSITY OF CALIFORNIA, priority 2015, dated 2022).

Columns and labels:
Format in all cases: biochemical
PYR1-HAB1 = target: T1, PYR1-HAB1 (Arabidopsis thaliana, UniProt O49686); experiment: PP2C activity assay, PYR1-HAB1 inhibition; conditions: for activity at 0.2 µM: 200 nM test compound, 100 nM HAB1 PP2C, 200 nM receptor, read-out: % Inhibition of PYR/PYL-HAB1 at 200 nM: PYR1; for IC50: dose response in triplicate, non-linear regression
T1 construct: 6xHis (N); made in house; host or cells: E. coli BL21[DE3]pLysS (stated for GST-HAB1)
T1 sequence (O49686 1-191): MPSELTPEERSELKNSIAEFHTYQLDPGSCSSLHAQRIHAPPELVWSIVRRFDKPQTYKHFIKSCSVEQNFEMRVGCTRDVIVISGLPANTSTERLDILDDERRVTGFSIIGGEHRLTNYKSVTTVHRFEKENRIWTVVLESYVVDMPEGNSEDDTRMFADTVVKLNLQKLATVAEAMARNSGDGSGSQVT
T1 sequence (Q9CAJ0 23-511 partner): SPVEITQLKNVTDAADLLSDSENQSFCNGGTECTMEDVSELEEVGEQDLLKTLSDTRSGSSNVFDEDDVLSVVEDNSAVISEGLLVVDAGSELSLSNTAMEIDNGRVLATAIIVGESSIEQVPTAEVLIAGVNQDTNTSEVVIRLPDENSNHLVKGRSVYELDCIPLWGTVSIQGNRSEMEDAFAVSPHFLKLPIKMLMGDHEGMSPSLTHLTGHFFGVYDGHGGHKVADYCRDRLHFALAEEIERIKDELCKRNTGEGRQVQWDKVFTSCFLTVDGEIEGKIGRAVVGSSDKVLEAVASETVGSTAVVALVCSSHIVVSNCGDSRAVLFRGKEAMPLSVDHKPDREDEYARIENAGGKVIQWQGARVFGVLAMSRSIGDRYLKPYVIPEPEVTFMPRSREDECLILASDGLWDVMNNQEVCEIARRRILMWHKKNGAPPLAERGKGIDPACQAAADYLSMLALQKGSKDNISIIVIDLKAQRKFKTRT
Source text: (§1) The protein HAB1, a type 2 protein phosphatase (PP2C), is inhibited by PYR/PYL proteins in dependence of abscisic acid or other agonists. The potency of an agonist correlates with the level of inhibition of the PP2C, and therefore the IC50 (receptor-HAB1) can be used to compare the relative activity of different chemical analogues. Since inhibition of PP2C correlates to inhibition of seed-germination and increase in plant water-use efficiency, it serves as a powerful tool to quantify biological potential of a chemical acting as an analogue of abscisic acid.
(§2) HAB1 and PYL proteins were expressed and purified as described in Park et al. ((2009) Science 324(5930):1068-1071), with minor modifications. GST-HAB1 was produced by expression in BL21[DE3]pLysS host cells with an expression clone containing the HAB1 cDNA cloned into pGex-2T. Transformed E. coli cells were pre-cultured overnight, transferred to LB medium and cultured at 30° C. to culture A600 of ˜0.5 OD units. The culture was then cooled on ice and MnCl2 added to 4 mM and IPTG added to 0.3 mM. After 16 hours incubation at 15° C., cells were harvested and recombinant proteins were purified on glutathione agarose as described in Park et al. To obtain 6×His-PYL receptor fusion proteins, we used expression constructs previously described by Okamoto et al. 2013, (PNAS 110(29): 12132-12137).
(§3) PP2C activity assays using recombinant receptors and PP2Cs were carried out as follows: purified proteins were pre-incubated in 160 μl assay buffer containing (100 mM Tris-HCl-pH7.9, 100 mM NaCl, 3 μg bovine serum albumin and 0.1% 2-mercaptoethanol), 1 mM MnCl2 with carrier solvent (DMSO), quinabactin or quinabactin analogs (compounds of the present invention) for 30 minutes at room temperature. Reactions were started by adding 40 μL of a reaction solution containing 25 mM 4-nitrophenyl phosphate in assay buffer, after which absorbance measurements were immediately collected (405 nm) using a Wallac plate reader. […] Inhibition is indicated by reduced PP2C activity, which is expressed as a percentage of the control PP2C activity values that were obtained from assays containing carrier solvent instead but no test compound.

PYL2-HAB1 = target: T2, PYL2-HAB1 (Arabidopsis thaliana, UniProt O80992); experiment: PP2C activity assay, PYL2-HAB1 inhibition; conditions: for percent inhibition at 0.2 µM: 200 nM test compound, 100 nM HAB1 PP2C, 200 nM receptor, read-out: % Inhibition of PYR/PYL-HAB1 at 200 nM: PYL2; for IC50: dose response in triplicate, non-linear regression
T2 construct: 6xHis (N); made in house; host or cells: E. coli BL21[DE3]pLysS (stated for GST-HAB1)
T2 sequence (O80992 1-190): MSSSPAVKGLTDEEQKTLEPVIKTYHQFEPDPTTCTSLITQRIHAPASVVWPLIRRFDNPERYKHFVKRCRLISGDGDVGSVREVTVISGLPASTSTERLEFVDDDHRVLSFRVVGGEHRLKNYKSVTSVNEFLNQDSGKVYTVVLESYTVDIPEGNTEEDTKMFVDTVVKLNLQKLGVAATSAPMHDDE
T2 sequence (Q9CAJ0 23-511 partner): T1 sequence (Q9CAJ0 23-511 partner)
Source text: as §1, §2, §3

PYL1-HAB1 = target: T3, PYL1-HAB1 (Arabidopsis thaliana, UniProt Q8VZS8); experiment: PP2C activity assay, PYL1-HAB1 inhibition; conditions: 200 nM test compound, 100 nM HAB1 PP2C, 200 nM receptor; read-out: % Inhibition of PYR/PYL-HAB1 at 200 nM: PYL1
T3 construct: 6xHis (N); made in house; host or cells: E. coli BL21[DE3]pLysS (stated for GST-HAB1)
T3 sequence (Q8VZS8 1-221): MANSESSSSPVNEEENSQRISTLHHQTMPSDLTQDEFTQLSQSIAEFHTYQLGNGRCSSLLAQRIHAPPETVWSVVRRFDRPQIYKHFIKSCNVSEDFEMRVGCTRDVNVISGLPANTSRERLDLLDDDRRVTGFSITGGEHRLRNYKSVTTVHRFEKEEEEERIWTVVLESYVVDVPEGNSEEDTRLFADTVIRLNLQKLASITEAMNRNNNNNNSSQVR
T3 sequence (Q9CAJ0 23-511 partner): T1 sequence (Q9CAJ0 23-511 partner)
Source text: as §1, §2
PP2C activity assays using recombinant receptors and PP2Cs were carried out as follows: purified proteins were pre-incubated in 160 μl assay buffer containing (100 mM Tris-HCl-pH7.9, 100 mM NaCl, 3 μg bovine serum albumin and 0.1% 2-mercaptoethanol), 1 mM MnCl2 with carrier solvent (DMSO), quinabactin or quinabactin analogs (compounds of the present invention) for 30 minutes at room temperature. Reactions were started by adding 40 μL of a reaction solution containing 25 mM 4-nitrophenyl phosphate in assay buffer, after which absorbance measurements were immediately collected (405 nm) using a Wallac plate reader. Reactions contained 100 nM HAB1 PP2C and 200 nM receptor and 200 nM test compound. Inhibition is indicated by reduced PP2C activity, which is expressed as a percentage of the control PP2C activity values that were obtained from assays containing carrier solvent instead but no test compound.

Molecule CCCN1C(=O)CCc2cc(NS(=O)(=O)Cc3ccc(C(F)(F)F)cc3)cc(F)c21 [HQ16] has an activity at 0.2 µM (PYR1-HAB1) of 52%, a percent inhibition at 0.2 µM (PYL2-HAB1) of 53.9% and an activity at 0.2 µM (PYL1-HAB1) of 38.5%.

CCCN1C(=O)CCc2cc(NS(=O)(=O)Cc3ccc(C#N)cc3)cc(F)c21 [HQ10] showed an activity at 0.2 µM (PYR1-HAB1) of 39.8%, a percent inhibition at 0.2 µM (PYL2-HAB1) of 77.2% and an activity at 0.2 µM (PYL1-HAB1) of 44.3%.

In the case of CCCN1C(=O)CCc2cc(NS(=O)(=O)Cc3ccc(C)cc3)ccc21 [Quinabactin], the activity at 0.2 µM (PYR1-HAB1) is reported as 22%, the IC50 (PYR1-HAB1) is reported as 104 nM and the percent inhibition at 0.2 µM (PYL2-HAB1) is reported as 44%. The IC50 (PYL2-HAB1) was 262 nM and the activity at 0.2 µM (PYL1-HAB1) was 23%.

For CCCN1C(=O)CCc2cc(NS(=O)(=O)Cc3ccccc3Br)cc(F)c21 [HQ20], the activity at 0.2 µM (PYR1-HAB1) was 97.4%, the percent inhibition at 0.2 µM (PYL2-HAB1) was 94.1% and the activity at 0.2 µM (PYL1-HAB1) was 84.7%.

CCCN1C(=O)CCc2cc(NS(=O)(=O)Cc3ccc(C)cc3)cc(Cl)c21 [HQ2] gave an activity at 0.2 µM (PYR1-HAB1) of 37.9%, an IC50 (PYR1-HAB1) of 47.7 nM and a percent inhibition at 0.2 µM (PYL2-HAB1) of 38.9%. For the same molecule, the IC50 (PYL2-HAB1) was 74 nM and the activity at 0.2 µM (PYL1-HAB1) was 20.3%.

CCCN1C(=O)CCc2cc(NS(=O)(=O)Cc3ccc(F)cc3Br)cc(F)c21 [HQ8] gave an activity at 0.2 µM (PYR1-HAB1) of 107%, a percent inhibition at 0.2 µM (PYL2-HAB1) of 92% and an activity at 0.2 µM (PYL1-HAB1) of 87.4%.

CCCN1C(=O)CCc2cc(NS(=O)(=O)Cc3ccc(C#N)cc3F)cc(F)c21 [HQ11] was tested, and the activity at 0.2 µM (PYR1-HAB1) was 28.8%, the IC50 (PYR1-HAB1) was 61.2 nM and the percent inhibition at 0.2 µM (PYL2-HAB1) was 73.5%. It also gave an IC50 (PYL2-HAB1) of 317 nM and an activity at 0.2 µM (PYL1-HAB1) of 27.9%.

Molecule CCCN1C(=O)CCc2cc(NS(=O)(=O)Cc3ccc(Cl)cc3Br)cc(F)c21 [HQ9] has an activity at 0.2 µM (PYR1-HAB1) of 105%, a percent inhibition at 0.2 µM (PYL2-HAB1) of 92.2% and an activity at 0.2 µM (PYL1-HAB1) of 86.9%.

CCCN1C(=O)CCc2cc(NS(=O)(=O)Cc3ccccc3F)cc(F)c21 [HQ3] gave an activity at 0.2 µM (PYR1-HAB1) of 65.7%, a percent inhibition at 0.2 µM (PYL2-HAB1) of 78.3% and an activity at 0.2 µM (PYL1-HAB1) of 46.7%.

Work on CCCN1C(=O)CCc2cc(NS(=O)(=O)Cc3ccc(C)cc3)cc(F)c21 [HQ1] yielded an activity at 0.2 µM (PYR1-HAB1) of 14.7%, an IC50 (PYR1-HAB1) of 37.5 nM and a percent inhibition at 0.2 µM (PYL2-HAB1) of 28%. The IC50 (PYL2-HAB1) was 42 nM and the activity at 0.2 µM (PYL1-HAB1) was 11.8%.

With CCCN1C(=O)CCc2cc(NS(=O)(=O)Cc3ccc([N+](=O)[O-])cc3)cc(F)c21 [HQ24] the activity at 0.2 µM (PYR1-HAB1) was 69%, the percent inhibition at 0.2 µM (PYL2-HAB1) was 76.5% and the activity at 0.2 µM (PYL1-HAB1) was 53.2%.

For CCCN1C(=O)CCc2cc(NS(=O)(=O)Cc3cccc(Cl)c3)cc(F)c21 [HQ27], the activity at 0.2 µM (PYR1-HAB1) was 90%, the percent inhibition at 0.2 µM (PYL2-HAB1) was 88% and the activity at 0.2 µM (PYL1-HAB1) was 79.8%.

CCCN1C(=O)CCc2cc(NS(=O)(=O)Cc3ccc(Br)cc3)cc(F)c21 [HQ25] was tested, and the activity at 0.2 µM (PYR1-HAB1) was 33.8%, the IC50 (PYR1-HAB1) was 75 nM and the percent inhibition at 0.2 µM (PYL2-HAB1) was 42.8%. The IC50 (PYL2-HAB1) was 77 nM and the activity at 0.2 µM (PYL1-HAB1) was 20.8%.

CCCN1C(=O)CCc2cc(NS(=O)(=O)Cc3cccc(F)c3)cc(F)c21 [HQ21] was tested, and the activity at 0.2 µM (PYR1-HAB1) was 62.4%, the percent inhibition at 0.2 µM (PYL2-HAB1) was 63.7% and the activity at 0.2 µM (PYL1-HAB1) was 48.2%.

CCCN1C(=O)CCc2cc(NS(=O)(=O)Cc3ccc(C(=O)OC)cc3)cc(F)c21 [HQ14] gave an activity at 0.2 µM (PYR1-HAB1) of 62.6%, a percent inhibition at 0.2 µM (PYL2-HAB1) of 91.8% and an activity at 0.2 µM (PYL1-HAB1) of 78.9%.

Molecule CCCN1C(=O)CCc2cc(NS(=O)(=O)Cc3cccc(C(F)(F)F)c3)cc(F)c21 [HQ17] has an activity at 0.2 µM (PYR1-HAB1) of 104%, a percent inhibition at 0.2 µM (PYL2-HAB1) of 88.2% and an activity at 0.2 µM (PYL1-HAB1) of 88.1%.

Molecule CCCN1C(=O)CCc2cc(NS(=O)(=O)Cc3ccccc3)cc(F)c21 [HQ26] has an activity at 0.2 µM (PYR1-HAB1) of 63.6%, a percent inhibition at 0.2 µM (PYL2-HAB1) of 74.8% and an activity at 0.2 µM (PYL1-HAB1) of 51.4%.

CCCN1C(=O)CCc2cc(NS(=O)(=O)Cc3cccc(Br)c3)cc(F)c21 [HQ23] gave an activity at 0.2 µM (PYR1-HAB1) of 90.8%, a percent inhibition at 0.2 µM (PYL2-HAB1) of 87.8% and an activity at 0.2 µM (PYL1-HAB1) of 85.7%.

In the case of CCCN1C(=O)CCc2cc(NS(=O)(=O)Cc3ccc(Cl)cc3Cl)cc(F)c21 [HQ22], the activity at 0.2 µM (PYR1-HAB1) is reported as 91.5%, the percent inhibition at 0.2 µM (PYL2-HAB1) is reported as 86.3% and the activity at 0.2 µM (PYL1-HAB1) is reported as 70.6%.

For CCCN1C(=O)CCc2cc(NS(=O)(=O)Cc3ccccc3C#N)cc(F)c21 [HQ12], the activity at 0.2 µM (PYR1-HAB1) was 106%, the percent inhibition at 0.2 µM (PYL2-HAB1) was 94.5% and the activity at 0.2 µM (PYL1-HAB1) was 82.4%.
